Assay results: patent US7893064B2, “Hydrazone derivatives as kinase inhibitors” (Janssen Pharmaceutica NV, priority 2006, dated 2011)

What was measured:
[1] = biological target: T1, EGFR kinase (GST fusion of intracellular portion of EGFR, NM_005228) (Homo sapiens, UniProt P00533); test: EGFR Kinase Assay; type: biochemical; settings: GSTEGFR, ATP 5 μM, biotinylated polyGluTyr, 33P Flashplate; read-out: EGFR Inhibition (%) IC50
T1 construct: The intracellular portion of EGFR started at nucleotide 2189 (corresponding to amino acid 667) and ended at the termination codon; made in house; host or cells: Sf9 insect cells (baculovirus)
T1 sequence (P00533 669-1210 limits assumed): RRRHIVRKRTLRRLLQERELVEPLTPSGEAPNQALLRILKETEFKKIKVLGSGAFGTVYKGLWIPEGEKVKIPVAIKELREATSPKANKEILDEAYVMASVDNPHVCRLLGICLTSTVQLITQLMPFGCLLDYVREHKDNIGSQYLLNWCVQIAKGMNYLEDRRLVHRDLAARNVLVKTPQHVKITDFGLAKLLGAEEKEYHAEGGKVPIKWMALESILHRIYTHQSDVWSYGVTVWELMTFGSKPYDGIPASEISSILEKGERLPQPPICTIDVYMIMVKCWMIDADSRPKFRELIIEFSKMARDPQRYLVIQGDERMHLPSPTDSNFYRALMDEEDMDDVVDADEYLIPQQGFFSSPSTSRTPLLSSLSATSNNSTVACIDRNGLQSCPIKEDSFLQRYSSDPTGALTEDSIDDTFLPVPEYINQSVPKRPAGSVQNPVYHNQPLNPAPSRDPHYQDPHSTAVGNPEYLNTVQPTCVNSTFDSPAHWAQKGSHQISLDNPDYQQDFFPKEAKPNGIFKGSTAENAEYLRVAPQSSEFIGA
From the text: The portion was PCR amplified with primers that added the lambda attB sequences to each end, recombined into an entry vector, then into a GST destination vector (as described in Gateway Technologies Manual by Invitrogen Corporation, Carlsbad, Calif.).
The destination vector was recombined in the DH10BAC strain of bacteria to produce a bacmid. The bacmid was transfected into Sf9 cells and the supernatant containing the baculovirus was collected. The GSTEGFR protein was purified using large cultures of Sf9 cells infected with stock virus. After an appropriate period of time, the cells were collected and lysed. The GSTEGFR was then purified from the lysate on Glutathione-Sepharose columns (as described by Amersham Biosciences, Buckinghamshire, United Kingdom).
The free biotin was separated from the biotinylated polyGluTyr on a gel filtration column.
A mixture of a 10× kinase buffer (500 mM Tris at pH 8.0, 100 mM Magnesium Chloride and 1 mM Sodium Vanadate), DTT (1 mM final from 500 mM stock), ATP (5 μM final from 10 mM stock), biotinylated polyGluTyr (10 μg/μL stock), γ-^33P ATP (10 μCi/μL stock) and water was added to each well (90 μL/well) of a Streptavidin Flashplate (Perkin Elmer, Wellesley, Mass.).
Test compound in 100% DMSO (2 μL) was added to the appropriate wells. Diluted GSTEGFR (1:300 dilution in 50 mM Tris at pH 8.0 and 0.1% bovine serum albumin) (10 μL) was added to the wells to initiate the reactions.
The plates were incubated at 30° C. for 1 hr with shaking. The reacted contents were removed and the plates were sequentially washed three times with a 1×PBS stop buffer (300 μL without Magnesium and Calcium) and 100 mM EDTA. After the final wash, the same stop buffer (200 μL) was added to the wells. The plates were then sealed and read on the TopCount scintillation counter.
Test compounds were assayed in triplicate at 16 concentrations at half-log dilutions starting at 200 uM. A maximum and minimum signal for the assay was determined on each plate. The percent inhibition of a test compound was calculated according to the formula
For a series of test concentrations, the IC50 was derived by graphing percent inhibition against the log of the concentrations tested for a given compound.

[2] = biological target: T2, HER2 (GST-HIS6-Thrombin fusion, amino acids 679 to 1255 of HER-2) (Homo sapiens, UniProt P04626); test: HER2 Screening Assay; type: biochemical; settings: 10 μM ATP, biotin-poly(GT) 4:1, 33P FlashPlate
T2 construct: GST (N); HIS6 (N); thrombin cleavage site (N); purchased Proqinase, Freiburg, Germany
T2 sequence (P04626 679-1255): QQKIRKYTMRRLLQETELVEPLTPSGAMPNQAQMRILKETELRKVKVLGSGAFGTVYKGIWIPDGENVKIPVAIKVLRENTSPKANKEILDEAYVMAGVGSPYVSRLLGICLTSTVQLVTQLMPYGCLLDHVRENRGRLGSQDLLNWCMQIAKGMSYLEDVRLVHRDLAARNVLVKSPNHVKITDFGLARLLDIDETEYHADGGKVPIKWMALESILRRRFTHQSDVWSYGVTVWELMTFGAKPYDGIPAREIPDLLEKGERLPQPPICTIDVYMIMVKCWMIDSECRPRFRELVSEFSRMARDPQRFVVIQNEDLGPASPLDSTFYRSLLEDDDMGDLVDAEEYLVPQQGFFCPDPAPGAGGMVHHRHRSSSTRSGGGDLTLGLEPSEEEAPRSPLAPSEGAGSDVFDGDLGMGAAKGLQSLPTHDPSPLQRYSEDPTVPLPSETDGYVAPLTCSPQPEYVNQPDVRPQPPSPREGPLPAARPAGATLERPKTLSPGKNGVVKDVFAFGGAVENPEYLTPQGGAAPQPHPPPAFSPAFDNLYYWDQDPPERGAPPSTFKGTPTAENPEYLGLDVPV
Experimental: A kinase reaction mixture was prepared containing 50 mM Tris-HCl pH=8, 10 mM MgCl2, 0.1 mM […], 1 mM DTT, 10 μM ATP, 0.025 μM biotinylated histone-H1 peptide substrate and 0.2 μCuries per well ^33P-γ-ATP (2000-3000 Ci/mmol). 70 μL of the kinase reaction mixture was dispensed into the well of a streptavidin coated FlashPlate™ (Cat. # SMP103, NEN, Boston, Mass.).
Test compound stock in 100% DMSO (1 μL) was added to the wells resulting in a final concentration of 1% DMSO in the reaction with a 100 μL final reaction volume. Each enzyme was diluted in 50 mM Tris-HCl pH=8.0, 0.1% BSA and 30 μL was added to each well to initiate the reaction. The reaction was incubated for one hour at 30° C. At the end of the 1 hr incubation, the reaction was terminated by aspirating the mixture from the plate and washing the wells twice with PBS containing 100 mM EDTA. The biotinylated peptide substrate became immobilized on the Flashplate™ and the incorporation of ^33P-γ-ATP was measured by reading the plate on a scintillation counter. Inhibition of the enzymatic activity was measured by observing a reduced amount of ^33P-γ-ATP incorporated into the immobilized peptide.
The HER2 construct consisted of a fusion of GST (Glutathione-S-Transferase), HIS6 Thrombin and the nucleotides encoding amino acids 679 to 1255 of HER-2 (Accession number M11730) (Proqinase, Freiburg, Germany). The assay used 200 ng of the N-terminal biotinylated peptide biotin-poly(GT) 4:1 (HER2) per well.
A maximum and minimum signal for the assay was determined on each plate. The percent inhibition of a test compound was calculated according to the formula: […]
For a series of test concentrations, the IC50 was derived by graphing percent inhibition against the log of the concentrations tested for a given compound with results shown in Table 2.

[3] = system: BT474 breast carcinoma cells; test: Cell Proliferation Inhibition Assay (14C-thymidine incorporation), BT-474; type: cell-based; settings: Homo sapiens, BT-474 cells
From the text: (§1) The ability of a test compound to inhibit unregulated cell proliferation may be determined by measuring incorporation of ^14C-labelled thymidine into newly synthesized DNA within cell lines derived from carcinomas originating from several tissues. Accordingly, the anti-proliferative effect of a compound on cells with a variety of phenotypes may be determined.
(§2) Carcinoma cell lines were obtained from the American Type Culture Collection (ATCC) and include those such as N87 (ATCC Cat. #), SKBR3 breast carcinoma (ATCC Cat. #HTB-30) and BT474 breast carcinoma (ATCC Cat. #HTB-20)
(§3) The carcinoma cells are trypsinized and counted. The cells (3000-8000 count) are added to each well of a 96-well CytoStar tissue culture treated scintillating microplate (Amersham #RPNQ0160) in complete medium (100 μL) and the plate is then incubated in complete medium for 24 hrs at 37° C. in an inert atmosphere containing 5% CO2. Test compound (1 μL) in 100% DMSO is added to the plate test-wells with DMSO only added to control-wells. The plate is incubated in complete medium for a second 24 hr period at 37° C. in an atmosphere containing 5% CO2.
(§4) An aliquot of a solution of Methyl ^14C-thymidine (56 mC/mmol) (NEN #NEC568 or Amersham #CFA532) and complete medium (20 μL to provide 0.2 μCi/well) is then added to each well and the plate is incubated for a third 24 hr period at 37° C. in an atmosphere containing 5% CO2. The plate contents are then discarded, the plate is washed twice with PBS (200 μL) and then PBS (200 μL) is added to each well. The plate is sealed and the degree of methyl ^14C-thymidine incorporation is quantified on a Packard Top Count.

N87 carcinoma cells = test: Cell Proliferation Inhibition Assay (14C-thymidine incorporation), N87; type: cell-based
From the text: as §1, §2, §3, §4

[4] = system: SKBR3 breast carcinoma cells; test: Cell Proliferation Inhibition Assay (14C-thymidine incorporation), SK-BR-3; type: cell-based; settings: Homo sapiens, SK-BR-3 cells
From the text: as §1, §2, §3, §4

| SMILES | IC50 [1] [nM] | IC50 [2] [nM] | IC50 [3] [nM] | IC50 (N87 carcinoma cells) [nM] | IC50 [4] [nM] |
| --- | --- | --- | --- | --- | --- |
| COc1ccc(NN=Cc2c(N)ncnc2Nc2ccc3c(cnn3Cc3cccc(F)c3)c2)cc1 [Cpd 1, N-[1-(3-fluoro-benzyl)-1H-indazol-5-yl]-5-[(4-methoxy-phenyl)-hydrazonomethyl]-pyrimidine-4,6-diamine] | 49 | 118 |  |  |  |
| CNN=Cc1c(N)ncnc1Nc1ccc2c(cnn2Cc2cccc(F)c2)c1 [Cpd 2, N-[1-(3-fluoro-benzyl)-1H-indazol-5-yl]-5-(methyl-hydrazonomethyl)-pyrimidine-4,6-diamine] | 12.4 | 83.6 |  |  |  |
| Nc1ncnc(Nc2ccc3c(cnn3Cc3cccc(F)c3)c2)c1C=NN1CCCCC1 [Cpd 3, N-[1-(3-fluoro-benzyl)-1H-indazol-5-yl]-5-(piperidin-1-yliminomethyl)-pyrimidine-4,6-diamine] |  | 18.3 | 48.5 | 365 | 691 |
| Nc1ncnc(Nc2ccc3c(cnn3Cc3cccc(F)c3)c2)c1C=NN1CCOCC1 [Cpd 4, N-[1-(3-fluoro-benzyl)-1H-indazol-5-yl]-5-(morpholin-4-yliminomethyl)-pyrimidine-4,6-diamine] | 16.5 | 6.6 | 30.5 | 90.5 | 122 |
| CN(C)/N=C/c1c(N)ncnc1Nc1ccc2c(cnn2Cc2cccc(F)c2)c1 [Cpd 5, 5-(dimethyl-hydrazonomethyl)-N-[1-(3-fluoro-benzyl)-1H-indazol-5-yl]-pyrimidine-4,6-diamine] | 8.2 | 2.4 | 63 | 131 | 148 |
| CN1CCN(N=Cc2c(N)ncnc2Nc2ccc3c(cnn3Cc3cccc(F)c3)c2)CC1 [Cpd 6, N-[1-(3-fluoro-benzyl)-1H-indazol-5-yl]-5-[(4-methyl-piperazin-1-ylimino)-methyl]-pyrimidine-4,6-diamine] | 15.6 | 8.4 |  |  |  |
| COC[C@H]1CCCN1N=Cc1c(N)ncnc1Nc1ccc2c(cnn2Cc2cccc(F)c2)c1 [Cpd 7, N-[1-(3-fluoro-benzyl)-1H-indazol-5-yl]-5-{[(2R)-2-methoxymethyl-pyrrolidin-1-ylimino]-methyl}-pyrimidine-4,6-diamine] | 31.2 | 72.2 |  |  |  |
| COC[C@@H]1CCCN1N=Cc1c(N)ncnc1Nc1ccc2c(cnn2Cc2cccc(F)c2)c1 [Cpd 8, N-[1-(3-fluoro-benzyl)-1H-indazol-5-yl]-5-{[(2S)-2-methoxymethyl-pyrrolidin-1-ylimino]-methyl}-pyrimidine-4,6-diamine] | 26.5 | 38.8 |  |  |  |
| Nc1ncnc(Nc2ccc3c(cnn3Cc3cccc(F)c3)c2)c1C=NN1CCN(CCO)CC1 [Cpd 9, 2-[4-({4-amino-6-[1-(3-fluoro-benzyl)-1H-indazol-5-ylamino]-pyrimidin-5-ylmethylene}-amino)-piperazin-1-yl]-ethanol] | 9.77 | 8.37 | 13.5 | 58.4 | 58.5 |
| Nc1ncnc(Nc2ccc3c(cnn3Cc3cccc(F)c3)c2)c1C=NNCC(F)(F)F [Cpd 10, N-[1-(3-fluoro-benzyl)-1H-indazol-5-yl]-5-[(2,2,2-trifluoro-ethyl)-hydrazonomethyl]-pyrimidine-4,6-diamine] | 52.9 | 19.8 |  |  |  |
